Source: US7776572B2, “Method for reducing loss of enzyme activity during storage” (Corning Incorporated, priority 1996, dated 2010)
Marks after values point to notes of the source that are not given here.

Columns and labels:
Horse IgG = test: Protein binding by colloidal gold staining, coated medium binding polystyrene plates; details: coated medium binding PS; IgG 10 μg/ml, pH 9.4
Procedure: Except where indicated, the non-ionic surfactants were applied to the hydrophobic surfaces being tested as a 0.1% (weight/volume) solution in isopropanol. A sufficient amount of coating solution was used to cover the surface being testing with a thin layer of the solution (e.g., 25 μl of the solution per well for a standard 24-well plate). In some cases, the solution was applied to surface by spraying; in others, it was poured onto the surface (into the well). Except where indicated, coated samples were either dried at 70° C. for 30 minutes in an air circulated oven or dried at room temperature overnight to evaporate the isopropanol.
Protein binding was determined in some examples using a colloidal gold straining procedure. In accordance with this procedure, colloidal gold becomes electrostatically attached to bound protein and is detected by measuring absorbance at 550 nanometers. Bio-Rad Laboratories' Colloidal Gold Total Protein Stain was used for this purpose, with absorbance being measured with a Cambridge Technologies Plate Reader (No. 7520).
The surfactants were coated onto medium binding polystyrene plates (Corning Costar No. 2587) as described in Material and Methods.
The plates were incubated with IgG as follows: 0.1 ml of Horse IgG (Pierce Labs) at a working concentration of 10 μg/ml in 0.10M NaHCO3 buffer (pH9.4) were added to each well, incubated 30 minutes on a rocker table, and rinsed with dI H2O. The plates were gold stained overnight (0.3 ml/well), rinsed in dI H2O, air dried, and absorbance was measured at 550 nm.

[1] = system: ^125I-IgG (goat anti-mouse); test: Radiometric determination of IgG binding to surfactant-coated polystyrene microtiter wells; details: for Total IgG binding, Non-Sterilized: coated polystyrene wells; for Total IgG binding, Non-Sterilized / Tight IgG binding, Non-Sterilized: not sterilized; for Total IgG binding, Non-Sterilized / Total IgG binding, Sterilized: after three PBS washes; for Total IgG binding, Sterilized / Tight IgG binding, Sterilized: gamma sterilized (1.5 Mrad); for Tight IgG binding, Sterilized / Tight IgG binding, Non-Sterilized: after two hours in PBS-Tween (0.05%)
Procedure: The hydrophobic surfaces used were flat bottom microtiter plates composed of high binding polystyrene (Corning Costar No. 2581) and medium binding polystyrene (Corning Costar No. 2587). Testing was performed with and without gamma radiation sterilization using cobalt 60 (1.5 Mrad).
The surfactants were applied to the test plates as described in Materials and Methods, followed by sterilization where indicated.
Levels of protein binding were determined using a radiolabeled protein, namely, ^125I-IgG (goat anti-mouse) purchased from DuPont/NEN. Unlabeled IgG in sodium carbonate buffer pH 9.2 was spiked with ^125I-IgG so that the final concentration of labeled IgG and cold IgG in the test solution was 10 μg/mL.
Aliquots of 0.1 milliliters of the protein solution were placed in quadruplicate in the wells of 8-well strips removed from the test microtiter plates. The wells were incubated overnight at 4° C. with shaking. The supernatants were removed from the wells, followed by three washes with 0.2 mL of PBS. The wells were then dried and individually counted to determine “total” IgG binding. After determining “total” binding, the wells were incubated for two hours in 0.2 mL of PBS-Tween (0.05%) at room temperature with shaking. The supernatants were removed from the wells followed by three washes with 0.2 mL of PBS. The wells were dried and individually counted to determine “tight” IgG binding.
Untreated high binding and medium binding plates were used as controls. A comparative experiment was also performed in which a BSA protein coating was used in place of a surfactant coating. The BSA was preabsorbed onto the walls of the wells and then washed to remove excess material. Testing was then performed using the radiolabeled IgG solution as described above.
Radiolabel measurements were performed in a double blind study at BioMolecular Assays (Woburn, Mass.). IgG binding values per microwell were converted to ng/cm^2 values using a surface area of 0.94 cm^2 for a 0.1 mL volume.

rat = details: cited from earlier work
HRP-Goat A'Mouse IgG = test: Enzymatic determination of protein binding to coated medium binding polystyrene plate; details: coated medium binding PS; versus uncoated high binding polystyrene plate; absorbance 405 nm
Procedure: The surfactants were coated onto a medium binding polystyrene plate (Corning Costar No. 2587) as described in Material and Methods. A medium binding polystyrene plate (Corning Costar No. 2587) and a high binding polystyrene plate (Corning Costar No. 2581) were used as controls.
(a) HRP-Goat A'Mouse IgG: Kirkegaard & Perry Laboratories, Inc. Catalog No. 074-1806. Stock solution: 0.5 mg/ml; working concentration: 0.04 μg/ml. The working concentration was obtained by adding 11 μl of the stock solution per 25 mls of PBS pH 7.4 to produce a work stock (WS), and then diluting 1:6 (i.e., 10 mls WS+50 mls PBS pH 7.4).
(1) 100 μl-well of HRP-Goat A'Mouse IgG at a concentration of 0.04 μg/ml were added to the test wells and incubated for 1 hour at room temperature.
(2) The wells were then washed 5 times with the 1M wash solution. Each wash include a 5 minute soak followed by decanting.
(3) 100 μl/well of substrate (30 mls ABTS+30 mls H2O2) were added to the test wells and incubated for 15 minutes at room temperature in the dark.
(4) 100 μl/well of stopping solution (1% SDS) were added to the test wells.
(5) The plates were then shaken and read at 405 nm.
(6) Reduction in binding was determined by comparing the absorbance measured in step (5) with the absorbance measured for a high binding polystyrene plate which had not been treated with a non-ionic surfactant but otherwise subjected to steps (1) to (5).

[2] = system: BSA protein (Bovine Serum Albumin, Fraction V); test: BSA binding to coated polystyrene 24-well plates at different pH, colloidal gold stain; details: for Absorbance (550 nm) pH = 9.2: BSA 10 μg/ml in 0.10 M NaHCO3 buffer; for Absorbance (550 nm) pH = 7.4: BSA 10 μg/ml in 0.10 M PBS; for Absorbance (550 nm) pH = 4.6: BSA 10 μg/ml in 0.10 M acetate buffer
Procedure: Polystyrene plates having 24 wells (Corning Costar #9447) were coated as described in Materials and Methods.
BSA protein (Bovine Serum Albumin, Fraction V, Sigma) was prepared at 10 μg/ml in 0.10 M acetate buffer (pH=4.6), in 0.10 M PBS (pH=7.4), and in 0.10 M NaHCO3 buffer (pH=9.2). Wells of each coated plate, along with uncoated controls, were aliquoted 0.50 ml each of the protein solutions. The samples were run in triplicate.
The plates were placed on a rocker table for 30 minutes at 23° C. The protein solutions were then emptied from the plates, and the wells were rinsed three times with dl H2O. Thereafter, 1.0 ml of colloidal gold stain was added to each well (see Materials and Methods). The plates were placed on a rocker table overnight, rinsed three times with dI H2O, and air dried. Absorbance at 550 nm was then read using the Cambridge Technologies Plate Reader.

BSA = test: Polymer blends molded into petri dishes, BSA binding by colloidal gold
Procedure: Low binding non-ionic surfactant molecules were blended at 5% (except as noted in Table 13) into a base polymer using a twin screw extruder, then injection molded into the shape of 35 mm petri dishes. Proteins tested were BSA and Fetal Bovine Serum (FBS). Protein binding was determined using a colloidal gold staining procedure as described above. In the case of the polypropylene and EVA blends, a silver enhancer was used (Sigma Chem. Co., St, Louis, Mo., Kit #SE-100).

MDCK cells [3] = test: Cytotoxicity of extracts of coated plates; format: cell-based; details: media extract of coated plates (37° C., 48 hours), MDCK 72 hours, Gram Crystal Violet
Procedure: Cytotoxicity experiments were performed using MDCK cells. The non-ionic surfactants tested were Pluronic L-121, L-122, and P-123; Span 80 and 85; and Brij 30, 72 and 93. These molecules were coated onto 24-well plates (Corning Costar #9447) from 0.1% (w/v) in isopropanol. Untreated polystyrene and normal tissue culture treated polystyrene (Corning Costar #25820) 24-well plates were used as controls. All plates were incubated at 37° C. for 48 hours with 2 ml/well of complete DMEM media containing 10% Fetal Bovine Serum (FBS). This incubation was performed in order to extract any potentially toxic compounds from the coated surface into the cell growth serum. The FBS solutions were then transferred to tissue culture treated polystyrene and each well was inoculated with ≈2×10^4 cells/well of MDCK cells, and then incubated at 37° C. for 72 hours in a 5% CO2 atmosphere. Cells were then stained with Gram Crystal Violet.

Fetal Bovine Serum (FBS) = test: Polymer blends molded into petri dishes, FBS protein binding by colloidal gold
MDCK cells [4] = test: MDCK cell attachment to coated polystyrene 24-well plates; format: cell-based; details: coated PS 24-well, gamma sterilized, media with 5% FBS, two days, visual
Procedure: (§1) The procedures used were as follows. Polystyrene 24-well plates were coated with the non-ionic surfactants listed in Table 5 in accordance with the procedures described in Materials and Methods. Uncoated plates were used as a control. For comparison, plates with a covalently attached acrylamide coating (Corning Costar Catalog #2500) and with a stearic acid coating were also tested. The stearic acid coating was applied in the same manner as the non-ionic surfactants again using a 0.1% (w/v) solution.
(§2) The plates were gamma sterilized at 1.5 Mrad and then inoculated with 5.6×10^4 MDCK […] per well in 1 ml of complete media containing 5% FBS (Fetal Bovine Serum). Incubation was carried out at 37° C. in a 5% CO2 atmosphere for two days. The plates were fixed and stained, and cell attachment was noted. Following this, the wells were stained using the colloidal gold technique to detect bound protein. Only visual observations were made.
Experiments were also performed with cells suspended in serum. The cells used in these experiments were MDCK cells. The surfactants used were the same as used in Table 5. Again, reduced binding of the cells to surfaces treated with a non-ionic surfactant was observed.

bound protein = test: Colloidal gold staining of bound protein after MDCK culture in media containing 5% FBS, visual; details: colloidal gold after cell culture, visual observation
Procedure: as §1, §2

IgG = test: Coating durability using water washes, IgG binding by colloidal gold; details: for Absorbance (550 nm) Initial: coated polystyrene, no water wash; for Absorbance (550 nm) 1 Time 1 hr 23° C. / Absorbance (550 nm) 1 Time 24 hr 23° C. / Absorbance (550 nm) 1 Time 24 hr 37° C. / Absorbance (550 nm) 1 Time 24 hr 70° C.: dI H2O wash 1 time; for Absorbance (550 nm) 6 Times 30 min each 23° C.: dI H2O wash 6 times
Procedure: Polystyrene plates having 24 wells (Corning Costar #9447) were coated with these surfactants as described in Materials and Methods. Durability was tested by adding dI H2O to the wells of a test plate (3.0 mls/well), following which the plate was placed on a rocker table. […] The protein solution was incubated with the plate on a rocker table for 30 minutes at 23° C., following which the plate was H2O rinse 3× (3 mls each time). The colloidal gold staining procedure described above was used to reveal bound protein. The staining comprised an overnight incubation on a rocker table at 23° C., a dI H2O rinse, drying at room temperature, and reading at 550 nm.

[5] = blended at 5% into polypropylene, silver enhancer

Compound	IgG Protein Binding Absorbance (550 nm) (Horse IgG)	Total IgG binding, Non-Sterilized [1]	Total IgG binding, Sterilized [1]	Tight IgG binding, Sterilized [1]	Tight IgG binding, Non-Sterilized [1]	LD50 (rat)	% Reduction in Protein Binding (HRP-Goat A'Mouse IgG)	Absorbance (550 nm) pH = 9.2 [2]	Absorbance (550 nm) pH = 7.4 [2]	Absorbance (550 nm) pH = 4.6 [2]	Bound Protein Absorbance (550 nm) BSA (BSA; [5])	cell growth and morphology (MDCK cells [3])	Bound Protein Absorbance (550 nm) FBS (Fetal Bovine Serum (FBS); [5])	Absorbance (550 nm) Initial (IgG)	Absorbance (550 nm) 1 Time 1 hr 23° C. (IgG)	Absorbance (550 nm) 1 Time 24 hr 23° C. (IgG)	Absorbance (550 nm) 1 Time 24 hr 37° C. (IgG)	Absorbance (550 nm) 1 Time 24 hr 70° C. (IgG)	Absorbance (550 nm) 6 Times 30 min each 23° C. (IgG)	also measured
CCCCCCCCCCCCCCCCCCOCCOCCO [PEO(2) STEARYL ETHER]	0.00	83 ng/cm^2	36 ng/cm^2	17 ng/cm^2	28 ng/cm^2	>25 grams/Kg	97.9%	0.00	0.00	0.00	0.000	confluent cell growth with normal cell morphology	0.000							BSA or FBS protein binding (BSA; blend in polypropylene or EVA): no detectable; Bound Protein Absorbance (550 nm) BSA (BSA; blended at 5% into polystyrene): 0.008; Bound Protein Absorbance (550 nm) FBS (Fetal Bovine Serum (FBS); blended at 5% into polystyrene): 0.009
CCCCCCCCCCCCCCCCCC(=O)OCCOCCOCCOCCOCCOCCOCCOCCO [PEO(8) STEARATE]	0.00	6 ng/cm^2	15 ng/cm^2	9 ng/cm^2	3 ng/cm^2	>31 grams/Kg	99.1%	0.00	0.00	0.00										
SORBITOL MONO-PALMITATE	0.00						88.9* %	0.00	0.00	0.00				0.00	0.00	0.00	0.00	0.00	0.02-0.06	MDCK Attachment (MDCK cells [4]): None; Visual Color Upon Protein Staining (bound protein): None
SORBITOL TRI-OLEATE											0.000	confluent cell growth with normal cell morphology	0.000	0.00	0.00	0.00	0.00	0.00	0.00	
